According to US6893821B2, “Agents that modulate DNA-PK activity and methods of use thereof” (The Regents of the University of California, priority 2000, dated 2005):

Legend:
[1] = test system: bone marrow derived macrophages (BMDM); assay: IL-6 and IL-12 levels in BMDM culture supernatants by ELISA; type: cell-based, mice
Procedure: Ku70^−/− and Ku80^−/− mice and their wild-type (wt) control on the 129 genetic background were generated by Dr. G. Li and bred at Memorial Sloan-Kettering Cancer Center (MSKCC), New York, N.Y. BMDM from wt, Ku70^−/− and Ku80^−/− mice (MSKCC) were prepared as was previously published (Martin-Orozco et al. (1999) Int. Immunol. 11:1111), and maintained in DMEM with 10% FBS, antibiotics and 20% L-cell medium and cultured for about 10 days to allow them to mature. BMDM were seeded (2.5×10^5/well in triplicate) on 96-well plates and treated with LPS (10 μg/ml), ISS-ODN (5 μg/ml) or M-ODN (5 μg/ml).
BMDM (2.5×10^5/well) from wt, or Ku70^−/− and Ku80^−/− mice were treated with LPS (1 μg/ml), ISS-ODN (5 μg/ml) or M-ODN (5 μg/ml) for 24 hours. IL-6 (A) or IL-12 (B) levels in the supernatants were determined by ELISA. Results are means±S.D, of 5 separate experiments for wt and Ku70^−/− and 3 separate experiments for Ku80^−/− mice. (C) BMDM were incubated with LPS (10 μg/ml) or ISS-ODN (5 μg/ml) for 6.5 hours. Total RNA was isolated and analyzed for the presence of IL-6, IL-12 and GAPDH messages by a Northern blot assay, as described in Example 1. Results are means±S.D. of 5 separate experiments for wt and Ku70^−/− and 3 separate experiments for Ku80^−/− mice.
DNA-PKcs^−/− and their wt control mice on the 129 genetic background were generated by Dr. G. C. Li and bred at Memorial Sloan-Kettering Cancer Center, New York, N.Y. IKKβ^−/− Tnfr1^−/− mice were generated by Drs. Z-W Li and Karin M. ATM^−/− mice on the C57BL/6 background were generated and bred by Dr. Y. Xu (UCSD) as was previously described (Xu et al.(1996) Genes Dev. 10:2411-2422) while their wild-type (wt) control were purchased from Jackson Laboratories (Bar Harbor, Me.). BMDMs from wt, DNA-PKcs^−/− mice, IKKβ^−/− Tnfr1^−/− and ATM^−/− mice were prepared as was previously published (Martin-Orozco et al. (1999) Intl. Immunol. 11:1111-1118), maintained in DMEM with 10% FBS, antibiotics and 20% L-cell medium and cultured for 7-10 days to allow them to mature. Prior to use BMDM were seeded (2.5×10^5/well in triplicate) in 96-well plates and than treated with LPS (1 μg/ml), ISS-ODN (5 μg/ml) or M-ODN (5 μg/ml), po-ISS-ODN (10 μg/ml) or po-ds-ISS-ODN (10 μg/ml), LPS-free, ultra pure bacterial DNA (E. coli, Sigma) (15 μg/ml) or methylated bacterial DNA or LPS-free, ultra pure calf thymus DNA (Sigma) (15 μg/ml). Methylation of bacterial DNA was performed by SssI methylase (Biolab, Boston, Mass.) (15 μg/ml) following manufacturer's instruction. Where indicated the PI3K inhibitor wortmannin (Wm), at various concentrations, was added to ISS-ODN or LPS stimulated BMDMs. After 24 hours in culture, the supernatants were collected and assayed for IL-6 and IL-12 levels by ELISA kits (PharMingen, San Diego, Calif.).

IκB kinase (IKK) complex = assay: IKK kinase assay on IKK complex immunoprecipitated from treated BMDM (IκBα N-terminus substrate); type: cell-based, mice
Procedure: (§1) Kinase assays and immunoblotting were performed according to Li et al. ((1999) J. Exp. Med. 189:1839-1845). Briefly, BMDM were treated with ISS-ODN (5 μg/ml), M-ODN (5 μg/ml) on ps and po backbones as indicated, LPS-free bacterial DNA or methylated bacterial DNA (5 μg/ml), LPS-free calf thymus DNA (5 μg/ml), LPS (10 μg/ml) or TNFα (10 ng/ml) for the indicated time periods. Cell lysates were prepared and normalized by immunoblotting (IB) with anti-IKKα polyclonal antibodies (Santa Cruz, Santa Cruz Biotech Inc., Calif.), anti-IKKβ polyclonal antbodies (Santa Cruz) or anti-DNA-PKcs monoclonal antibodies (NeoMarker, Calif.). IκB kinase (IKK) complex or DNA-PK complex from 100 μg of the lysates were immunoprecipitated by anti-IKKα or by anti-DNA-PKcs antibodies. The kinase activities (KA) were determined by a kinase assay using the N-terminus of IκBα (for IKK) or the N-terminus of p53 (for DNA-PK) as a substrate as previously described. Wang et al. (1992) Proc. Natl. Acad. Sci. USA 89:4231-4235; Li et al.(1999), supra; and Hammarsten et al. (2000) J. Biol. Chem. 275:1541-1545.

DNA-PK [2] = target: T1, DNA-PK (Mus musculus, UniProt P23475+P27641+P97313); assay: DNA-PK activity in treated BMDM by immune-complex kinase assay; type: cell-based, mice; details: wt BMDM
T1 construct: endogenous in cells; host or cells: mouse bone marrow-derived macrophages (BMDM)
Procedure: as §1
(§2) To further determine whether ISS-ODN, po-ISS-ODN or bacterial DNA activate DNA-PK in cells, we treated BMDM from either wt or DNA-PKcs-deficient mice with ISS-ODN, po-ISS-ODN, bacterial DNA or LPS as a control.

DNA-PK [3] = assay: as above; type: cell-based, mice; details: DNA-PKcs-deficient BMDM
Procedure: as §1, §2

HSP70 = assay: RT-PCR for induction of heat shock protein gene transcription in BMDM; type: cell-based, mouse
Procedure: A half million mouse BMDM isolated from BALB/c, IFNα receptor knockout, or IFNγ knockout mice were incubated with ISS-ODN or M-ODN at a final concentration of 10 μg/ml. After 0, 1, 2, 4, 6, and 8 hours, total RNA was prepared and analyzed by RT-PCR (reverse transcription-polymerase chain reaction) for induction of gene transcription of heat shock proteins. The sequences of the primers used is as follows: […]

5′-TGACTGTGAACGTTCGAGATGA-3′ [ISS-ODN]
IL-6 and IL-12 induction ([1]; ATM-deficient BMDM): normal induction
IL-6 and IL-12 induction ([1]; DNA-PKcs-deficient BMDM in comparison to wt): Very low levels
IL-6 and IL-12 induction ([1]; IKKβ-/- Tnfr-/- BMDM): significantly reduced
IL-6 and IL-12 secretion ([1]; Ku70-/- and Ku80-/- BMDM as compared to wt, 24 hours): very low levels
IKK activation, wt vs ATM-deficient BMDM (IκB kinase (IKK) complex; ATM-deficient BMDM): no differences were observed
IKK activation (IκB kinase (IKK) complex; DNA-PKcs-/- BMDM as compared to wt): little increase in IKK activity
IKK activation (IκB kinase (IKK) complex; IKKβ-/- Tnfr-/- BMDM (absence of IKKβ)): prevented
IKK activation (IκB kinase (IKK) complex; wt BMDM): robust IKK activation
duration of IKK activation (IκB kinase (IKK) complex; wt BMDM): about 4 hrs
time of maximal IKK activation post incubation (IκB kinase (IKK) complex; wt BMDM): 30 min
ISS-ODN concentration of optimal IKK activation (IκB kinase (IKK) complex; wt BMDM (FIG. 5B)): 0.65 µg/mL
time of peak DNA-PK activity (DNA-PK [2]): 1 h
DNA-PK activity in cells (DNA-PK [2]; 30-minute incubation): Considerable DNA-PK activity
DNA-PK activity in cells (DNA-PK [3]): Little or no DNA-PK activity
induction of HSP-70 gene transcription (HSP70; BMDM from IFN type 1 receptor knockout mice): did not result in induction of HSP-70
induction of inducible HSP-70 gene transcription (HSP70; BMDM, 10 μg/ml, 0-8 hours): induces inducible HSP-70
